In patent publication US7495018B2, “Substituted 1,3-thiazole compounds, their production and use” (Takeda Pharmaceutical Company Limited, priority 2000, dated 2009):

| Structure (SMILES) | melting point |
| --- | --- |
| COc1ccc(-c2nc(C)sc2-c2ccnc(N)c2)cc1 [Example Compound 23-3, 4-[4-(4-methoxyphenyl)-2-methyl-1,3-thiazol-5-yl]-2-pyridylamine] | 140 to 141 °C |
| Cc1cccc(-c2nc(NC(=O)Nc3ccccc3)sc2-c2ccnc(NC3CCCC3)c2)c1 [Example Compound 53-3, N-[5-(2-cyclopentylamino-4-pyridyl)-4-(3-methylphenyl)-1,3-thiazol-2-yl]-N′-phenylurea] | 188 to 190 °C |
| Cc1cccc(-c2nc(NC(=O)c3cccnc3)sc2-c2ccnc(NC3CCCC3)c2)c1 [Example Compound 42-4, N-[5-(2-cyclopentylamino-4-pyridyl)-4-(3-methylphenyl)-1,3-thiazol-2-yl]nicotinamide] | 215 to 216 °C |
| Cc1cccc(-c2nc(NC(=O)c3ccc(C)nc3)sc2-c2ccnc(NC3CCCC3)c2)c1 [Example Compound 46-2, N-[5-(2-cyclopentylamino-4-pyridyl)-4-(3-methylphenyl)-1,3-thiazol-2-yl]-6-methylnicotinamide] | 213 to 214 °C |
| CCc1nc(-c2cccc(Br)c2)c(-c2ccnc(N)c2)s1 [Example Compound 75-2, 4-[4-(3-bromophenyl)-2-ethyl-1,3-thiazol-5-yl]-2-pyridylamine] | 132 to 134 °C |
| CCNC(=O)Nc1cc(-c2sc(CC)nc2-c2cccc(C)c2)ccn1 [Example 108, N-ethyl-N′-[4-[2-ethyl-4-(3-methylphenyl)-1,3-thiazol-5-yl]-2-pyridyl]urea] | 177 to 180 °C |
| Cc1cc(C)cc(-c2nc(-c3ccc([S+](C)[O-])cc3)sc2-c2ccnc(C)c2)c1 (stereo not drawn) [Example Compound 56-1, 4-(3,5-dimethylphenyl)-5-(2-methyl-4-pyridyl)-2-(4-methylsulfinylphenyl)-1,3-thiazole] | 151 to 153 °C |
| Cc1cccc(-c2nc(N)sc2-c2ccnc(NC3CCCC3)c2)c1 [Example Compound 34-3, [5-(2-cyclopentylamino-4-pyridyl)-4-(3-methylphenyl)-1,3-thiazol-2-yl]amine] | 169 to 170 °C |
| Cc1cccc(-c2nc(N3CCN(C)CC3)sc2-c2ccnc(C)c2)c1 [Example Compound 14-13, 4-(3-methylphenyl)-2-(4-methylpiperazin-1-yl)-5-(2-methyl-4-pyridyl)-1,3-thiazole] | 115 to 116 °C |
| Cc1cccc(-c2nc(-c3ccc(S(C)(=O)=O)cc3)sc2-c2ccnc(N3CCOCC3)c2)c1 [Example Compound 36-8, 4-(3-methylphenyl)-2-(4-methylsulfonylphenyl)-5-(2-morpholino-4-pyridyl)-1,3-thiazole] | 200 to 202 °C |
| CSc1ccc(-c2nc(-c3cccc(C)c3)c(-c3ccnc(N)c3)s2)cc1 [Example Compound 23-2, 4-[4-(3-methylphenyl)-2-[4-(methylthio)phenyl]-1,3-thiazol-5-yl]-2-pyridylamine] | 181 to 183 °C |
| CCc1nc(-c2ccccc2)c(-c2ccnc(NC(=O)OC(C)(C)C)c2)s1 [Example Compound 79-1, 5-[2-(tert-butoxycarbonylamino)-4-pyridyl]-2-ethyl-4-phenyl-1,3-thiazole] | 154 to 155 °C |
| CC(=O)Nc1nc(-c2cccc(C)c2)c(-c2cc(C)nc(C)c2)s1 [Example Compound 40-2, N-[5-(2,6-dimethyl-4-pyridyl)-4-(3-methylphenyl)-1,3-thiazol-2-yl]acetamide] | 185 to 187 °C |
| Cc1cccc(-c2nc(N3CCN(C)CC3)sc2-c2ccnc(C)c2)c1 [Example Compound 14-14, 4-(3-methylphenyl)-2-(1-methylpiperazin-4-yl)-5-(2-methyl-4-pyridyl)-1,3-thiazole] | 127 to 130 °C |
| Cc1cccc(-c2nc(-c3ccc(S(C)(=O)=O)cc3)sc2-c2ccnc(NCC3CCCCC3)c2)c1 [Example Compound 37-3, N-cyclohexylmethyl-4-[4-(3-methylphenyl)-2-(4-methylsulfonylphenyl)-1,3-thiazol-5-yl]-2-pyridylamine] | 157 to 159 °C |
| Cc1cccc(-c2nc(-c3ccc(S(C)(=O)=O)cc3)sc2-c2ccnc(F)c2)c1 [Example Compound 58-4, 5-(2-fluoro-4-pyridyl)-4-(3-methylphenyl)-2-(4-methylsulfonylphenyl)-1,3-thiazole] | 195 to 199 °C |
| Cc1cccc(-c2nc(C(=O)O)sc2-c2ccnc(C)c2)c1 [Example Compound 25-2, 5-(2-methyl-4-pyridyl)-4-(3-methylphenyl)-1,3-thiazole-2-carboxylic acid] | 135 to 136 °C |
| Cc1cccc(-c2nc(NC(=O)c3ccc(Cl)nc3)sc2-c2ccnc(NC3CCCCC3)c2)c1 [Example Compound 44-1, 6-chloro-N-[5-(2-cyclohexylamino-4-pyridyl)-4-(3-methylphenyl)-1,3-thiazol-2-yl]nicotinamide] | 255 to 256 °C |
| CCCc1nc(-c2cccc(Cl)c2)c(-c2ccnc(NC(C)=O)c2)s1 [Example Compound 30-3, N-[4-[4-(3-chlorophenyl)-2-propyl-1,3-thiazol-5-yl]-2-pyridyl]acetamide] | 144 to 145 °C |
| CCC(=O)Nc1cc(-c2sc(C)nc2-c2cccc(Cl)c2)ccn1 [Example Compound 30-7, N-[4-[4-(3-chlorophenyl)-2-methyl-1,3-thiazol-5-yl]-2-pyridyl]propionamide] | 134 to 135 °C |
| CSc1ccc(-c2nc(-c3ccc(F)cc3)c(-c3ccnc(C)c3)s2)cc1 [Example Compound 16-5, 4-(4-fluorophenyl)-5-(2-methyl-4-pyridyl)-2-[4-(methylthio)phenyl]-1,3-thiazole] | 99 to 100 °C |
| CCc1nc(-c2ccc(F)cc2)c(-c2ccnc(N)c2)s1 [Example Compound 20-3, 4-[2-ethyl-4-(4-fluorophenyl)-1,3-thiazol-5-yl]-2-pyridylamine] | 140 to 141 °C |
| CCc1nc(-c2ccccc2)c(-c2ccnc(N)c2)s1 [Example Compound 20-2, 4-(2-ethyl-4-phenyl-1,3-thiazol-5-yl)-2-pyridylamine] | 158 to 159 °C |
| CC(=O)Nc1cc(-c2sc(C(C)=O)nc2-c2cccc(Cl)c2)ccn1 [Example 112, N-[4-[2-acetyl-4-(3-chlorophenyl)-1,3-thiazol-5-yl]-2-pyridyl]acetamide] | 180 to 183 °C |
| COc1ccc(C(=O)Nc2nc(-c3cccc(C)c3)c(-c3ccnc(NC4CCCC4)c3)s2)cn1 [Example Compound 48-2, N-[5-(2-cyclopentylamino-4-pyridyl)-4-(3-methylphenyl)-1,3-thiazol-2-yl]-6-methoxynicotinamide] | 219 to 221 °C |
| Cc1cccc(-c2nc(NC(=O)c3ccc(C)nc3)sc2-c2ccnc(NC3CCCCC3)c2)c1 [Example Compound 46-1, N-[5-(2-cyclohexylamino-4-pyridyl)-4-(3-methylphenyl)-1,3-thiazol-2-yl]-6-methylnicotinamide] | 242 to 243 °C |
| Cc1cccc(-c2nc(-c3ccc(S(C)(=O)=O)cc3)sc2N2C=CC=CC2N2CCCCC2)c1 (stereo not drawn) [Example Compound 35-2, 4-(3-methylphenyl)-2-(4-methylsulfonylphenyl)-5-(2-piperidino-1-pyridyl)-1,3-thiazole] | 155 to 157 °C |
| CSc1ccc(-c2nc(-c3cccc(C)c3)c(-c3cc(C)nc(C)c3)s2)cc1 [Example Compound 16-3, 5-(2,6-dimethyl-4-pyridyl)-4-(3-methylphenyl)-2-[4-(methylthio)phenyl]-1,3-thiazole] | 112 to 114 °C |
| Cc1cccc(-c2nc(NC(=O)Nc3ccccc3)sc2-c2ccnc(C)c2)c1 [Example Compound 53-4, N-[4-(3-methylphenyl)-5-(2-methyl-4-pyridyl)-1,3-thiazol-2-yl]-N′-phenylurea] | 168 to 169 °C |

Now from value to molecule:

| melting point | Structure (SMILES) |
| --- | --- |
| 112 to 113 °C | CCc1cccc(-c2nc(CC)sc2-c2ccnc(NC(C)=O)c2)c1 [Example 82-7, N-[4-[2-ethyl-4-(3-ethylphenyl)-1,3-thiazol-5-yl]-2-pyridyl]acetamide] |
| 140 to 141 °C | Cc1cccc(-c2nc(C(C)(F)F)sc2-c2ccnc(N)c2)c1 [Example 113-2, 4-[2-(1,1-difluoroethyl)-4-(3-methylphenyl)-1,3-thiazol-5-yl]-2-pyridylamine] |
| 149 to 150 °C | CCc1nc(-c2ccc(Cl)cc2)c(-c2ccnc(NC(=O)CC3CCCC3)c2)s1 [Example 90-2, N-[4-[4-(4-chlorophenyl)-2-ethyl-1,3-thiazol-5-yl]-2-pyridyl]cyclopentylacetamide] |
| 181 to 182 °C | CSc1ccc(-c2nc(-c3cccc(C)c3)c(-c3ccnc(NC(C)=O)c3)s2)cc1 [Example 82-12, N-[4-[4-(3-methylphenyl)-2-[4-(methylthio)phenyl]-1,3-thiazol-5-yl]-2-pyridyl]acetamide] |
| 81 to 82 °C | CCCCC(=O)Nc1cc(-c2sc(CC)nc2-c2cccc(C)c2)ccn1 [Example 87-1, N-[4-[2-ethyl-4-(3-methylphenyl)-1,3-thiazol-5-yl]-2-pyridyl]valeramide] |
| 85 to 86 °C | CCC(=O)Nc1cc(-c2sc(CCSC)nc2-c2cccc(C)c2)ccn1 [Example 102-1, N-[4-[4-(3-methylphenyl)-2-[2-(methylthio)ethyl]-1,3-thiazol-5-yl]-2-pyridyl]propionamide] |
| 126 to 127 °C | CCC(=O)Nc1cc(-c2sc(CC)nc2-c2cccc(C(F)(F)F)c2)ccn1 [Example 84-3, N-[4-[2-ethyl-4-(3-trifluoromethylphenyl)-1,3-thiazol-5-yl]-2-pyridyl]propionamide] |
| 156 to 157 °C | CCC(=O)Nc1cc(-c2sc(CC)nc2-c2ccc(F)cc2)ccn1 [Example 84-2, N-[4-[2-ethyl-4-(4-fluorophenyl)-1,3-thiazol-5-yl]-2-pyridyl]propionamide] |
| 98 to 99 °C | CSCCc1nc(-c2cccc(C)c2)c(-c2ccnc(N)c2)s1 [Example 99-1, 4-[4-(3-methylphenyl)-2-[2-(methylthio)ethyl]-1,3-thiazol-5-yl]-2-pyridylamine] |
| 146 to 147 °C | CCc1nc(-c2cccc(C(F)(F)F)c2)c(-c2ccnc(NC(C)=O)c2)s1 [Example 82-3, N-[4-[2-ethyl-4-(3-trifluoromethylphenyl)-1,3-thiazol-5-yl]-2-pyridyl]acetamide] |
